Assay results from article PMC10610545, “Preclinical Evaluation of an Imidazole-Linked Heterocycle for Alzheimer’s Disease” (Pharmaceutics, 2023).

How the values were obtained:
[1] = tested on: Ngf, Bdnf, Tnf-a, Il-6 gene expression; assay: Real-time PCR gene expression in hippocampus of 5XFAD mice; assay type: in vivo, mouse; settings: 2 mg/Kg
Method: Four-month-old female and male Wt and 5XFAD mice (n = 32) were used to carry out cognitive and molecular analyses. […] The animals had free access to food and water and were kept under standard temperature conditions (22 ± 2 °C) and 12 h/12 h light/dark cycles (300 lx/0 lx). […] After 4 weeks of treatment, cognitive tests, including short- and long-term memory and OLT, were performed to study the effects of treatment on learning and memory. Weight and water consumption were controlled each week, and the LSL33 concentration was adjusted accordingly to reach the optimal dose until euthanasia.
Three days after cognitive tests, mice were euthanized for protein extraction and RNA and DNA isolation. After euthanasia, the brains were immediately removed from the skulls, and the hippocampi were dissected, frozen, and maintained at −80 °C.
Total RNA isolation was carried out using TRIzol® reagent according to the manufacturer’s instructions. The yield, purity, and quality of RNA were determined spectrophotometrically with a NanoDrop™ ND-1000 apparatus (Thermo Scientific, Waltham, MA, USA) and an Agilent 2100B Bioanalyzer (Agilent Technologies, Santa Clara, CA, USA). RNA samples with 260/280 ratios and RNA integrity numbers (RINs) higher than 1.9 and 7.5, respectively, were selected. A reverse transcription-polymerase chain reaction (RT-PCR) was performed. Briefly, 2 μg of messenger RNA (mRNA) was reverse-transcribed using a high-capacity cDNA reverse transcription kit (Applied Biosystems, Foster City, CA, USA).
SYBR® Green real-time PCR was performed on a StepOnePlus Detection System (Applied Biosystems) with SYBR® Green PCR master mix (Applied Biosystems). Each reaction mixture contained 6.75 μL of complementary DNA (cDNA) (with a concentration of 2 μg), 0.75 μL of each primer (with a concentration of 100 nM), and 6.75 μL of SYBR® Green PCR master mix (2×).
The data were analyzed utilizing the comparative cycle threshold (Ct) (ΔΔCt) method, in which the levels of a housekeeping gene are used to normalize differences in sample loading and preparation. Normalization of expression levels was performed with β-actin for SYBR® Green-based real-time PCR. Each sample was analyzed in duplicate, and the results represent the n-fold differences in the transcript levels among different groups.
Figure 7 Results from an in vivo study of synaptic plasticity markers. (A) Representative protein levels and quantification by WB for PSD95. (B,C) Representative gene expression for Ngf and Bdnf Gene expression levels were determined by real-time PCR. The data correspond to the mean ± SEM (n = 3–5 mice per group). […]
Figure 8 Results from an in vivo study Neuroinflammatory markers. Representative gene expression for Tnf-a and Il-6 Gene expression levels were determined by real-time PCR. […]

[2] = Metabolic stability in human liver microsomes; assay type: in vitro ADME
Method: The objective of this study was to evaluate the metabolic stability of LSL33 and its depletion rate in the presence of HLM. This was achieved by incubating LSL33 with microsomes and monitoring parent disappearance using LC/MSMS (Table S6).
Metabolic stability of LSL33 in human liver microsomes
The reaction was initiated by adding HLM (1 mg/mL) to an equal volume of buffer solution containing the test compound and cofactors at the proper concentrations. Reactions without NADPH were also incubated to rule out non-NADPH metabolism or chemical instability in the […]
incubation course. All reactions were terminated using 60 µL of ice-cold acetonitrile at 0, 5, 15, […]
30, 45, and 60 min. […] All experiments were conducted in triplicate. Samples were monitored to parent compound disappearance by LC-MS in MRM mode according to a quantitation method for each compound.
LSL33 was dissolved in DMSO at 0.5 mg/mL. Assay conditions, total incubation volume 400 µL, protein concentration 1 mg/mL, NADPH, 1.3 mM. Preparation of reagents: Test compound, the final concentration in the assay. […]
prepared by dissolving appropriate amount of N ADPH in 100 mM potassium phosphate buffer. […]
from Sigma-Aldrich, Germany. The equipment needed for the study was Beckman Coulter […]
injector, Api4000 Mass Spectrometer.
Bio-Analysis: Samples were monitored for parent compound disappearance by LC-MS in MRM mode according to a previously verified quantitation method for each compound.
Data Analysis: The peak area of analyte was used to calculate the percentage of remaining compound at each incubation time (Table S7). The natural logarithm of the percentage of reamining LSL33 was plotted versus incubation time to calculate the half -life using the following […]
time) see Table S8 and Figure S11 . Intrinsic clearance was determined by the following equation:
CLint H = Ln 2/t1/2 (min) x volume incubation (mL)/microsomal protein (mg) x 45 (MPPGL) 1500 g human liver/ 70 Kg human body weight. Units for CL int are usually expressed as mL/min/mg microsomal protein (table S8), MPPGL = referred to as mg microsomal protein per gram liver.
The categories classification
Table S6. Summary of LC-MS conditions
Ionization Mode Electrospray positive
Sample matrix Microsomes+ NADPH + buffer […]
Mobile phase [Water: Acetonitrile :0.1% Formic Acid]

[3] = 5XFAD hippocampus, vs 5XFAD Control

Structure (SMILES): Cl.c1ccc2sc(-c3ncc[nH]3)cc2c1 [LSL33, 2-(Benzo[b]thiophene-2-yl)-1H-imidazole hydrochloride]
- Il-6 gene expression [1, 3]: clear tendency to reduce both cytokines
- Ngf gene expression [1, 3]: significant increase in Ngf gene expression
- Tnf-a gene expression [1, 3]: clear tendency to reduce both cytokines
- Bdnf gene expression ([1]; both treated groups (Wt and 5XFAD)): clear tendency to increase
- hepatic clearance category ([2]; HLM intrinsic clearance bands): high
- % Compound Remaining ([2]; HLM, minus NADPH, 0 min): 100.0 ± 10.2%
- % Compound Remaining ([2]; HLM, minus NADPH, 60 min): 96.6 ± 9.0%
- % Compound Remaining ([2]; HLM, plus NADPH, 0 min): 100.0±9.0%
- % Compound Remaining ([2]; HLM, plus NADPH, 5 min): 4.6 ± 0.4%
- % Compound Remaining ([2]; HLM, plus NADPH, 15 min): 0.1 ± 0.1%
- % Compound Remaining ([2]; HLM, plus NADPH, 30 min): 0.2 ± 0.1%
- % Compound Remaining ([2]; HLM, plus NADPH, 45 min): 1.3 ± 0.2%
- % Compound Remaining ([2]; HLM, plus NADPH, 60 min): 0.2 ± 0.3%
- half-life ([2]; human, human liver microsomes, HLM): 1.58 min
